Assay results from PubChem BioAssay AID2060602 (Molecular Pharmacology Branch, DTP, NCI, 2025).

System: 648629-189-R-J1-PDC complex spheroids viability
Assay: Anticancer human tumor 648629-189-R-J1-PDC patient-derived bladder carcinoma cell line growth inhibition [CLK]
Conditions: for IC50: curve of first compound; for viability, T/C: stronger effect = lower value; active = viability on the fitted dose curve at most 10% of control; inactive = the rest
Description: A high-throughput screen of multi-cell type tumor spheroids was designed to identify active combinations of […] and targeted small molecules. Complex spheroids include a stromal component modeled by human endothelial cells (HUVEC) and fibroblasts modeled by human mesenchymal stem cells (MSCs). The concentration ranges selected for each drug and investigational agent were based upon clinically achievable concentrations if the clinical Cmax of the agent was known.
Compounds. The drugs and investigational agents: cirtuvivint (SM08502; NSC835563), CC-671 (NSC850746), vemurafenib (NSC761431), tapotoclax (NSC804041), sotorasib (NSC818433), adagrasib (NSC831453), MRTX-1133 (NSC836407), BAY2416964 (NSC825713), copanlisib (NSC816437), inavolisib (NSC800729), abemaciclib (NSC768073), osimertinib (NSC779217), entinostat (NSC756642), eltanexor (KPT-8602, NSC794443), venetoclax (NSC766270), ceralasertib (NSC777638), bortezomib (NSC756655), olaparib (NSC753686), talazoparib (NSC767125), alisertib (NSC759677), peposertib (NSC802822), gemcitabine (NSC613327), 5-fluorouracil (NSC19893), SN-38 (NSC673596), oxaliplatin (NSC266046), paclitaxel (NSC125973), and doxorubicin (NSC123127), were obtained from the National Cancer Institute (NCI) Developmental Therapeutics Program Chemical Repository. The FDA-approved anticancer drug set is available from the Developmental Therapeutics Program at https://dtp.cancer.gov/organization/dscb/obtaining/available plates.htm. […] The stock solutions were prepared in dimethyl sulfoxide (DMSO, Sigma-Aldrich, St. Louis, MO, cat. D2650), except for the platinum complexes which were prepared in saline (Quality Biological, Gaithersburg, MD, cat. 114-055-101), at 800-fold the tested concentration and stored at -70 degrees C prior to their use. All drugs and investigational agents were tested over a range starting from a high concentration at or near the clinical Cmax and decreasing in half-log increments. If the clinical Cmax for an agent had not been determined, the highest concentration tested was 10 microM.
Cell Culture. All cells were maintained in an incubator at 37 degrees C and 5% CO2 with 95% humidity. The PDC lines were cultured according to standard operating procedures established by the NCI PDMR. Briefly, all PDCs were thawed and cultured in Matrigel-coated flasks prepared with a working solution of 1X Ham's F-12 nutrient mix, without supplementation (Invitrogen, Waltham, MA, cat. 11765054), 100 U/mL penicillin-streptomycin (Invitrogen, cat. 15140122), and 2.5% Matrigel (Corning Inc., Corning, NY, cat. 354248) for the first three passages. The 947758-054-R-J2-PDC line was cultured in 6B/Colon 1A media, which includes advanced DMEM/F-12 (Thermo Fisher Scientific, cat. 12634028), 10 mM HEPES (Thermo Fisher Scientific, cat. 15630080), 1X GlutaMAX supplement (Thermo Fisher Scientific, cat. 35050061), 0.1 mg/mL primocin (InvivoGen, cat. ant-pm-2), 10% defined fetal bovine serum, heat inactivated (HyClone Laboratories Inc., cat. SH30070.03HI), 1.25 mM N-Acetyl-L-cysteine (Sigma-Aldrich, cat. A9165), 10 mM nicotinamide (Sigma-Aldrich, cat. N0636), 1X B-27 supplement (Thermo Fisher Scientific, cat. 17504044), 1X N-2 supplement (Thermo Fisher Scientific, cat. 17502048), and 10 microM Y-27632 dihydrochloride (Tocris Bioscience, cat. 1254). The 876862-298-R-J1-PDC was cultured in 6E media, which includes all 6B/Colon 1A media components plus 50% L-WRN conditioned media (ATCC, cat. CRL-3276), 50 ng/mL recombinant human EGF recombinant protein (hEGF; Thermo Fisher Scientific, cat. PHG0311), 10 ng/mL recombinant human fibroblast growth factor 10 (hGFG-10; PeproTech, cat. 100-26), 1 ng/mL recombinant human fibroblast growth factor 2 (hFGF-2; PeproTech, cat. 100-18B), and 1 µM prostaglandin E2 (PGE2; Tocris, cat. 2296). The 227483-062-R1-J1-PDC line was cultured in Panc media, containing all 6E components except hFGF-2, with the addition of 500 nM SB-431542 (Selleckchem, cat. S1067) and 10 nM gastrin (Tocris, cat. 3006). […]

[1] = second compound 0.0316 µM, first compound 0.0316 µM
[2] = second compound 0.0316 µM, first compound 0.1 µM
[3] = second compound 0.0316 µM, first compound 0.316 µM
[4] = second compound 0.0316 µM, first compound 1 µM
[5] = second compound 0.1 µM, first compound 0.0316 µM
[6] = second compound 0.1 µM, first compound 0.1 µM
[7] = second compound 0.1 µM, first compound 0.316 µM
[8] = second compound 0.1 µM, first compound 1 µM
[9] = second compound 0.316 µM, first compound 0.0316 µM
[10] = second compound 0.316 µM, first compound 0.1 µM
[11] = second compound 0.316 µM, first compound 0.316 µM
[12] = second compound 0.316 µM, first compound 1 µM
[13] = second compound 1 µM, first compound 0.0316 µM
[14] = second compound 1 µM, first compound 0.1 µM
[15] = second compound 1 µM, first compound 0.316 µM
[16] = second compound 1 µM, first compound 1 µM
[17] = second compound 3.16 µM, first compound 0.0316 µM
[18] = second compound 3.16 µM, first compound 0.1 µM
[19] = second compound 3.16 µM, first compound 0.316 µM
[20] = second compound 3.16 µM, first compound 1 µM
[21] = second compound 10 µM, first compound 0.0316 µM
[22] = second compound 10 µM, first compound 0.1 µM
[23] = second compound 10 µM, first compound 0.316 µM
[24] = second compound 10 µM, first compound 1 µM
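For viability, T/C in this document: drug exposure lasted seven days before viability readout; 100% = DMSO vehicle control wells.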

CCCS(=O)(=O)Nc1ccc(F)c(C(=O)c2c[nH]c3ncc(-c4ccc(Cl)cc4)cc23)c1F + CN1CCN(c2cc(C(=O)Nc3cc4cc(-c5cnn(C)c5)ccc4cn3)ccn2)CC1
< 31.6 nM: IC50 (second compound 0.316 µM) | IC50 (second compound 1 µM) | IC50 (second compound 3.16 µM) | IC50 (second compound 10 µM)
active: viability, T/C (second compound 0.316 µM, first compound 10 µM) 7.7% | viability, T/C [13] 0.47% | viability, T/C [14] 0.46% | viability, T/C [15] 0.3% | viability, T/C [16] 0.39% | viability, T/C (second compound 1 µM, first compound 3.16 µM) 0.22% | viability, T/C (second compound 1 µM, first compound 10 µM) 0.86% | viability, T/C [17] 0.11% | viability, T/C [18] 0.67% | viability, T/C [19] 0.13% | viability, T/C [20] 0.13% | viability, T/C (second compound 3.16 µM, first compound 3.16 µM) 0.14% | viability, T/C (second compound 3.16 µM, first compound 10 µM) 0.52% | viability, T/C [21] 0.11% | viability, T/C [22] 0.13% | viability, T/C [23] 0.14% | viability, T/C [24] 0.16% | viability, T/C (second compound 10 µM, first compound 3.16 µM) 0.15% | viability, T/C (second compound 10 µM, first compound 10 µM) 0.25%
7250 nM: IC50 (second compound 0.1 µM)
inactive: viability, T/C [1] 115% | viability, T/C [2] 104% | viability, T/C [3] 116% | viability, T/C [4] 110% | viability, T/C (second compound 0.0316 µM, first compound 3.16 µM) 126% | viability, T/C (second compound 0.0316 µM, first compound 10 µM) 21.8% | viability, T/C [5] 110% | viability, T/C [6] 118% | viability, T/C [7] 105% | viability, T/C [8] 98.7% | viability, T/C (second compound 0.1 µM, first compound 3.16 µM) 104% | viability, T/C (second compound 0.1 µM, first compound 10 µM) 28.9% | viability, T/C [9] 37.6% | viability, T/C [10] 57.9% | viability, T/C [11] 55.4% | viability, T/C [12] 46.8% | viability, T/C (second compound 0.316 µM, first compound 3.16 µM) 44.1%
7050 nM: IC50 (second compound 0.0316 µM)

CCc1c2c(nc3ccc(O)cc13)-c1cc3c(c(=O)n1C2)COC(=O)[C@]3(O)CC + CNC(=O)c1ccc(Nc2nc(OC3CCCC3)c3c(-c4ccc5nc(C)oc5c4)c[nH]c3n2)c(OC)c1
< 3.16 nM: IC50 (second compound 0.0316 µM) | IC50 (second compound 0.1 µM) | IC50 (second compound 0.316 µM) | IC50 (second compound 1 µM) | IC50 (second compound 3.16 µM) | IC50 (second compound 10 µM)
active: viability, T/C [1] 8.79% | viability, T/C [2] 5.84% | viability, T/C [3] 5.59% | viability, T/C [4] 4.59% | viability, T/C [5] 7.18% | viability, T/C [6] 5.66% | viability, T/C [7] 5.26% | viability, T/C [8] 2.75% | viability, T/C (second compound 0.316 µM, first compound 0.01 µM) 8.48% | viability, T/C [9] 7.05% | viability, T/C [10] 4.87% | viability, T/C [11] 5.55% | viability, T/C [12] 4.88% | viability, T/C [13] 8.46% | viability, T/C [14] 5.17% | viability, T/C [15] 4.53% | viability, T/C [16] 3.56% | viability, T/C [17] 9.98% | viability, T/C [18] 6.24% | viability, T/C [19] 7.38% | viability, T/C [20] 5.35% | viability, T/C [22] 7.91% | viability, T/C [23] 6.48% | viability, T/C [24] 4.98%
inactive: viability, T/C (second compound 0.0316 µM, first compound 0.00316 µM) 30.3% | viability, T/C (second compound 0.0316 µM, first compound 0.01 µM) 11.5% | viability, T/C (second compound 0.1 µM, first compound 0.00316 µM) 30.1% | viability, T/C (second compound 0.1 µM, first compound 0.01 µM) 10.5% | viability, T/C (second compound 0.316 µM, first compound 0.00316 µM) 14.1% | viability, T/C (second compound 1 µM, first compound 0.00316 µM) 11.9% | viability, T/C (second compound 1 µM, first compound 0.01 µM) 10.9% | viability, T/C (second compound 3.16 µM, first compound 0.00316 µM) 14.8% | viability, T/C (second compound 3.16 µM, first compound 0.01 µM) 13.1% | viability, T/C (second compound 10 µM, first compound 0.00316 µM) 17.2% | viability, T/C (second compound 10 µM, first compound 0.01 µM) 13.8% | viability, T/C [21] 10.4%
